The target of the experiment is T1, human M4 muscarinic acetylcholine receptor (Homo sapiens, UniProt P08173).
T1 construct: expressed in transfected cells; host or cells: CHO-K1
T1 sequence (P08173 1-479): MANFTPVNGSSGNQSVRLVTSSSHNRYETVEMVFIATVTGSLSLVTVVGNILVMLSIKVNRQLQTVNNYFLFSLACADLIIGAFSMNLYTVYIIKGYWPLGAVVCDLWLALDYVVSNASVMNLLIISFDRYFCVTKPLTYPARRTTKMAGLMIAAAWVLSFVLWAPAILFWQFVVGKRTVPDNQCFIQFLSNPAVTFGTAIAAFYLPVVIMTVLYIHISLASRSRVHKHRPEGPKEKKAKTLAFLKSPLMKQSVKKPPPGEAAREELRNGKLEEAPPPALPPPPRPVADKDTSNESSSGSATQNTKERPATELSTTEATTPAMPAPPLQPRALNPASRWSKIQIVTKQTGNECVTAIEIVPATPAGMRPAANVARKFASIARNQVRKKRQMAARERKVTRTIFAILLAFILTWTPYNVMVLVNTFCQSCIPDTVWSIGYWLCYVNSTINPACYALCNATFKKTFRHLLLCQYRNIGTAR
The experiment is described as follows: human FLIPR-based M4 PAM assay, CHO-K1 cells stably transfected with human M4 receptor and chimeric G-protein Gαqi5. Type of experiment: cell-based. The note with it: inflection point (IP) of dose response curve; acetylcholine added at 20% of maximum response; CHO-K1 human M4/Gαqi5, FLIPR Tetra. The method, then:
In a typical experiment the M4 muscarinic acetylcholine receptor modulating activity of the compounds of the present invention was determined in accordance with the following experimental method. CHO-K1 cells stably transfected with human M4 receptor and chimeric G-protein Gαqi5 (Coward P, et al., Analytical Biochemistry, 270:242-248 (1999)) are thawed from liquid N2 storage, resuspended in growth medium, plated in black, clear bottom 384 well plates, and incubated 16-20 hours at 37° C., 5% CO2. On the day of assay, growth medium is removed, the cells are washed 2 times with wash buffer, and cells are incubated in dye loading buffer at 37° C., 5% CO2 for ˜1 hour. Following dye loading the cell plates are placed in a FLIPR Tetra instrument and while monitoring dye fluorescence (excitation […]), 10 uL of test substance at increasing concentrations is added, and fluorescence values are recorded for 4 min. Next, 10 uL of acetylcholine is added (final concentration calculated so as to achieve 20% of the maximum acetycholine response), and the fluorescence reading is continued for 3.5 min. In some cases, a third addition of acetylcholine (final concentration calculated to achieve 70% of the maximal acetylcholine response) is performed. The resulting dose response curves are fit to a 4 parameter logistic equation and the final result is determined as the inflection point (IP) of the curve
CHO-K1 cells stably transfected with human M4 receptor and chimeric G-protein Gαqi5 are thawed from liquid N2 storage, resuspended in growth medium, plated in black, clear bottom 384 well plates, and incubated 16-20 hours at 37° C., 5% CO2.
On the day of assay, growth medium is removed, the cells are washed 2 times with wash buffer, and cells are incubated in dye loading buffer at 37° C., 5% CO2 for ˜1 h. Following dye loading the cell plates are placed in a FLIPR Tetra instrument and while monitoring dye fluorescence ([…]), 10 uL of test substance at increasing concentrations is added, and fluorescence values are recorded for 4 min. Next, 10 uL of acetylcholine is added (final concentration calculated so as to achieve 20% of the maximum acetycholine response), and the fluorescence reading is continued for 3.5 min. In some cases, a third addition of acetylcholine (final concentration calculated to achieve 70% of the maximal acetylcholine response) is performed.
For “6-((1-(6-chloro-2-(hydroxymethyl)-5-methylpyrimidin-4-yl)piperidin-4-yl)oxy)-2-cyclopropylisoindolin-1-one [Example 32]”, the midpoint of the response, the EC50, lay at 185 nM. That is a sub-micromolar value.

Take `COc1ccc(O[C@@H]2CCN(c3ncnc(Cl)c3C)C[C@@H]2F)cc1` (relative stereo) [Example 13, 4-chloro-6-((cis)-3-fluoro-4-(4-methoxyphenoxy)piperidin-1-yl)-5-methylpyrimidine]: the EC50 amounted to 110 nM.

`Cc1c(Cl)nc(CO)nc1N1CC[C@@H](Oc2ccc3c(cnn3C)c2)[C@@H](F)C1` (relative stereo) [Example 25, (4-chloro-6-((cis)-3-fluoro-4-((1-methyl-1H-indazol-5-yl)oxy)piperidin-1-yl)-5-methylpyrimidin-2-yl)methanol] displayed an EC50 of 78 nM.

For the molecule `COc1ccc(OC2CCN(c3nnc(C(=O)N[C@@H]4CCc5ccncc5C4)cc3C)CC2)cn1` (single isomer, unassigned) [Example 107A], the EC50 came out at 182 nM.

Molecule `COc1ccc(OC2CCN(c3nc(C)nc(Cl)c3C)CC2)cn1` [Example 1, 4-Chloro-6-(4-((6-methoxypyridin-3-yl)oxy)piperidin-1-yl)-2,5-dimethylpyrimidine] gave an EC50 of 191 nM.

`Cc1c(Cl)nc(CO)nc1N1CCC(Oc2ccc3ccc(=O)oc3c2)CC1` [Example 2, 7-((1-(6-chloro-2-(hydroxymethyl)-5-methylpyrimidin-4-yl)piperidin-4-yl)oxy)-2H-chromen-2-one] had an EC50 of 427 nM.

With `Cc1ccc(OC2CCN(c3nc(CO)nc(Cl)c3C)CC2)cc1Cl` [Example 3, (4-chloro-6-(4-(3-chloro-4-methylphenoxy)piperidin-1-yl)-5-methylpyrimidin-2-yl)methanol], the midpoint of the response, the EC50, lay at 452 nM.

Regarding `Cc1c(Cl)nc(CO)nc1N1CCC(Oc2ccc3ncnn3c2)CC1` [Example 4, (4-(4-([1,2,4]triazolo[1,5-a]pyridin-6-yloxy)piperidin-1-yl)-6-chloro-5-methylpyrimidin-2-yl)methanol], the half-maximal effective concentration (EC50) was found to be 533 nM.

For the molecule `Cc1c(Cl)nc(CO)nc1N1CCC(Oc2ccc3nonc3c2)CC1` [Example 5, (4-(4-(benzo[c][1,2,5]oxadiazol-5-yloxy)piperidin-1-yl)-6-chloro-5-methylpyrimidin-2-yl)methanol], a half-maximal response (EC50) required 766 nM.

For `Cc1c(Cl)nc(CO)nc1N1CCC(Oc2ccc3ncn(C)c(=O)c3c2)CC1` [Example 6, 6-((1-(6-chloro-2-(hydroxymethyl)-5-methylpyrimidin-4-yl)piperidin-4-yl)oxy)-3-methylquinazolin-4(3H)-one], a half-maximal effect (EC50) was put at 976 nM.

For `COC1CCN(c2nnc(C(=O)NCc3ccncc3)cc2C)CC1` [Example 7, 6-(4-methoxypiperidin-1-yl)-5-methyl-N-(pyridin-4-ylmethyl)pyridazine-3-carboxamide], the concentration for a half-maximal effect (EC50) worked out at 1240 nM.

As for `Cc1c(Cl)nc(CO)nc1N1CCC(Oc2ccc(S(C)(=O)=O)cc2)CC1` [Example 8, (4-chloro-5-methyl-6-(4-(4-(methylsulfonyl)phenoxy)piperidin-1-yl)pyrimidin-2-yl)methanol], the EC50 worked out at 1360 nM.

`Cc1c(Cl)nc(CO)nc1N1CCC(Oc2ccc3ccn(C)c(=O)c3c2)CC1` [Example 9, 7-((1-(6-chloro-2-(hydroxymethyl)-5-methylpyrimidin-4-yl)piperidin-4-yl)oxy)-2-methylisoquinolin-1(2H)-one] registered an EC50 of 2490 nM.

Turning to `COC(=O)c1cc(C)c(N2CCC(Oc3ccc(OC)cc3)CC2)nn1` [Example 10, methyl 6-(4-(4-methoxyphenoxy)piperidin-1-yl)-5-methylpyridazine-3-carboxylate], the EC50 came to 82 nM. This EC50 is about 30-fold lower than that of the molecule before.

In turn, `Cc1nnc(N2CCC(Oc3cccc(C#N)c3)CC2)c(C#N)c1C` [Example 11, 3-(4-(3-cyanophenoxy)piperidin-1-yl)-5,6-dimethylpyridazine-4-carbonitrile] gave an EC50 of 1130 nM.

Turning to `Cc1nc(Cl)c(C)c(N2CCC(Oc3cccnc3)CC2)n1` [Example 12, 4-chloro-2,5-dimethyl-6-(4-(pyridin-3-yloxy)piperidin-1-yl)pyrimidine], the EC50 came out at 292 nM. This EC50 lies about 3.9-fold lower than the previous one.

Molecule `Cc1c(Cl)ncnc1N1CCC(Oc2cccnc2)CC1` [Example 14, 4-chloro-5-methyl-6-(4-(pyridin-3-yloxy)piperidin-1-yl)pyrimidine] registered an EC50 of 609 nM.

Molecule `CSc1nc(Cl)c(C)c(N2CCC(Oc3cccnc3)CC2)n1` [Example 15, 4-chloro-5-methyl-2-(methylthio)-6-(4-(pyridin-3-yloxy)piperidin-1-yl)pyrimidine] displayed an EC50 of 745 nM.

`COc1ccc(OC2CCN(c3nc(SC)nc(Cl)c3C)CC2)cc1` [Example 16, 4-chloro-6-(4-(4-methoxyphenoxy)piperidin-1-yl)-5-methyl-2-(methylthio)pyrimidine] gave an EC50 of 1830 nM.

Take `COC(=O)Cc1c(Cl)ncnc1N1CCC(Oc2ccc(OC)cc2)CC1` [Example 17, methyl 2-(4-chloro-6-(4-(4-methoxyphenoxy)piperidin-1-yl)pyrimidin-5-yl)acetate]: the response was half-maximal at 2670 nM (EC50).

`COc1ccc(OC2CCN(c3nc(OC)ncc3C#N)CC2)cc1` [Example 18, 2-methoxy-4-(4-(4-methoxyphenoxy)piperidin-1-yl)pyrimidine-5-carbonitrile]: a half-maximal effect (EC50) was put at 1890 nM.

Take `Cc1ncc(C)c(N2CCC(Oc3cccnc3)CC2)n1` [Example 19, 2,5-dimethyl-4-(4-(pyridin-3-yloxy)piperidin-1-yl)pyrimidine]: the EC50 is 2920 nM.

Molecule `CSc1ncc(C)c(N2CCC(Oc3cccnc3)CC2)n1` [Example 20, 5-methyl-2-(methylthio)-4-(4-(pyridin-3-yloxy)piperidin-1-yl)pyrimidine] showed an EC50 of 3060 nM.

`Cc1c(Cl)nc(CO)nc1N1CCC(Oc2ccc3c(c2)C(=O)CCO3)CC1` [Example 21, 6-((1-(6-chloro-2-(hydroxymethyl)-5-methylpyrimidin-4-yl)piperidin-4-yl)oxy)chroman-4-one] yielded an EC50 of 57 nM.

`Cc1cc(C(=O)NCc2ccncc2)nnc1N1CCC(Oc2cnn(C)c2)CC1` [Example 22, 5-methyl-6-(4-((1-methyl-1H-pyrazol-4-yl)oxy)piperidin-1-yl)-N-(pyridin-4-ylmethyl)pyridazine-3-carboxamide] displayed an EC50 of 74 nM.

`Cc1c(Cl)nc(CO)nc1N1CCC(Oc2cccc(C#N)c2)C(F)(F)C1` (stereo not shown) [Example 23, 3-((1-(6-chloro-2-(hydroxymethyl)-5-methylpyrimidin-4-yl)-3,3-difluoropiperidin-4-yl)oxy)benzonitrile] returned an EC50 of 75 nM.

Take `Cc1c(Cl)nc(CO)nc1N1CCC(Oc2ccc3c(c2)C(=O)OC3)CC1` [Example 24, 6-((1-(6-chloro-2-(hydroxymethyl)-5-methylpyrimidin-4-yl)piperidin-4-yl)oxy)isobenzofuran-1(3H)-one]: the 50% effective concentration (EC50) came to 77 nM. This EC50 and that of the molecule before are within 1.5-fold of each other.

With `Cc1c(Cl)nc(CO)nc1N1CCC(Oc2ccc3c(c2)C(=O)CC3)CC1` [Example 26, 6-((1-(6-chloro-2-(hdyroxymethyl)-5-methylpyrimidin-4-yl)piperidin-4-yl)oxy)-2,3-dihydro-1H-inden-1-one], a half-maximal response (EC50) required 85 nM.

On to `Cc1c(Cl)nc(CO)nc1N1CCC(Oc2ccc3c(c2)NCCO3)CC1` [Example 27, (4-chloro-6-(4-((3,4-dihydro-2H-benzo[b][1,4]oxazin-6-yl)oxy)piperidin-1-yl)-5-methylpyrimidin-2-yl)methanol], for which the response was half-maximal at 112 nM (EC50).

`COc1ccc(OC2CCN(c3nnc(-c4nc(C)no4)cc3C)CC2)cn1` [Example 28, 5-(6-(4-((6-methoxypyridin-3-yl)oxy)piperidin-1-yl)-5-methylpyridazin-3-yl)-3-methyl-1,2,4-oxadiazole]: a half-maximal effect (EC50) was put at 119 nM.

For the molecule `Cc1c(Cl)nc(CO)nc1N1CCC(Oc2ccc3c(ccn3C)c2)CC1` [Example 29, (4-chloro-5-methyl-6-(4-((1-methyl-1H-indol-5-yl)oxy)piperidin-1-yl)pyrimidin-2-yl)methanol], a half-maximal response (EC50) required 126 nM.

What is called EC50 is the concentration needed to bring the measured effect to its halfway point.
